Experimental data published in US9493478B2, “Fused ring compound containing furan or salt thereof and pharmaceutical composition comprising same” (YUHAN CORPORATION, priority 2012, dated 2016).

How the values were obtained:
Format in all cases: biochemical
PI3Kα (p110α/p85α)(h) = PI3Kα (p110α/p85α)(h) (Homo sapiens, UniProt P42336); assay: Assay for phosphatidylinositol 3-kinase alpha (PI3Kα) activity, PI3K-HTRF kit; settings: TR-FRET; enzyme 0.3625 μg/ml, 10 μM PIP2, 10 μM ATP
PI3Kγ (p120γ)(h) = PI3Kγ (p120γ)(h) (Homo sapiens, UniProt P48736); assay: Assay for phosphatidylinositol 3-kinase gamma (PI3Kγ) activity, PI3K-HTRF kit; settings: TR-FRET; enzyme 1.45 μg/ml, 10 μM PIP2, 10 μM ATP
Summary of the method: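 Recombinant PI3Kγ (1.45 μg/ml final) preincubated ~10 min with compound, then reacted with 10 μM PIP2 and 10 μM ATP for 90 min at room temperature. PIP3 detected by HTRF (biotin-PIP3/Eu-PH domain/APC), 665/620 nm ratio after 6 h; IC50 from inhibition relative to controls.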

PI3K β (p110β/p85α)(h) = PI3K β (p110β/p85α)(h) (Homo sapiens, UniProt P42338); assay: Assay for phosphatidylinositol 3-kinase beta (PI3Kβ) activity, PI3K-HTRF kit; settings: TR-FRET; enzyme 0.725 μg/ml, 10 μM PIP2, 10 μM ATP
PI3Kδ (p110δ/p85α)(h) = PI3Kδ (p110δ/p85α)(h) (Homo sapiens, UniProt O00329); assay: Assay for phosphatidylinositol 3-kinase delta (PI3Kδ) activity, PI3K-HTRF kit; settings: TR-FRET; enzyme 0.725 μg/ml, 10 μM PIP2, 10 μM ATP
Sequence of PI3Kδ (p110δ/p85α)(h) (O00329 whole entry): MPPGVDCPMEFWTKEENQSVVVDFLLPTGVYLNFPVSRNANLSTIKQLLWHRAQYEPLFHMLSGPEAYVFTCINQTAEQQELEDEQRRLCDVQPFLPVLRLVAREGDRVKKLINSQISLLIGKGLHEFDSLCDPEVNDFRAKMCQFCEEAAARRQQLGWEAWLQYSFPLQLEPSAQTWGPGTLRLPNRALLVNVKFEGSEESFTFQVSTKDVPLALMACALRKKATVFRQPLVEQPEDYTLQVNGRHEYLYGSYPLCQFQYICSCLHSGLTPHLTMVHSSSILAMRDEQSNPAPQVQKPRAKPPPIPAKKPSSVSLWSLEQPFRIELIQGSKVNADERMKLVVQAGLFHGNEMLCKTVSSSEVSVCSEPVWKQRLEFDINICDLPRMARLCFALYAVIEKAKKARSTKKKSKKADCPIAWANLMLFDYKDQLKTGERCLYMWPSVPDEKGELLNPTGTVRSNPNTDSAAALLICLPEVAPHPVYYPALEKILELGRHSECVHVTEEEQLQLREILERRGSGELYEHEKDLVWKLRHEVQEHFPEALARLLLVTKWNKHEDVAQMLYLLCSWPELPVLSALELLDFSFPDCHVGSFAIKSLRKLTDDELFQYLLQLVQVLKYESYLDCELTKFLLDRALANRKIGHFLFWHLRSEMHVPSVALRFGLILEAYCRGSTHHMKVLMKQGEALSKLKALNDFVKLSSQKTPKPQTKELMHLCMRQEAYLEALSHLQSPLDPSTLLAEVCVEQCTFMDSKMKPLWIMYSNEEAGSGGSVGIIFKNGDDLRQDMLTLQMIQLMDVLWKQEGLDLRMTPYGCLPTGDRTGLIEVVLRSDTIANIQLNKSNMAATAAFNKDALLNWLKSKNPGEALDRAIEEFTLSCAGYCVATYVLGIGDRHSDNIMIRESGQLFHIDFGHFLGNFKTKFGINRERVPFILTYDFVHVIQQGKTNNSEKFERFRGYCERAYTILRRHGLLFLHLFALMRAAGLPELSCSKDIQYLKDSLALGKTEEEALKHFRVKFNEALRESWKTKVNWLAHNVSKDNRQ
Sequence of PI3Kδ (p110δ/p85α)(h) (P27986 whole entry partner): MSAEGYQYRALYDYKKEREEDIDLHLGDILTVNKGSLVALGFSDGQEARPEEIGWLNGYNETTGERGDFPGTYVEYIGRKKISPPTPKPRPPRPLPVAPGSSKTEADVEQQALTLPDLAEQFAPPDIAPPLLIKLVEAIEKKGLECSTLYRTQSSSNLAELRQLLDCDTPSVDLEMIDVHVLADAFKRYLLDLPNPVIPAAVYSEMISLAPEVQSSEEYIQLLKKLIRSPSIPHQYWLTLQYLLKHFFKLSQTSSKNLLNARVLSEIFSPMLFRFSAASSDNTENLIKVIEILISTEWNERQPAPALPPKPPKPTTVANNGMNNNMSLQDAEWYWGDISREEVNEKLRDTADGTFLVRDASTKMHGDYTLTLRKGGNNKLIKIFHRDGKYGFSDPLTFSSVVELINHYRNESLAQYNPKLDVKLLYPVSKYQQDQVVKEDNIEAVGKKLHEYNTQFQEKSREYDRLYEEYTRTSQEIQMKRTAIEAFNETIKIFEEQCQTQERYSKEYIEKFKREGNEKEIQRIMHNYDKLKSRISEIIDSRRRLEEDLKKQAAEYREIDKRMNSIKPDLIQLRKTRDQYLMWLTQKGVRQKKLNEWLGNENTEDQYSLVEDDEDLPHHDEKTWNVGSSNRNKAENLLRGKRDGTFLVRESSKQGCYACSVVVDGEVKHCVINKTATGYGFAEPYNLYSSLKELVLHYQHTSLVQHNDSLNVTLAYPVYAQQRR

Sequence of PI3K β (p110β/p85α)(h) (P42338 whole entry): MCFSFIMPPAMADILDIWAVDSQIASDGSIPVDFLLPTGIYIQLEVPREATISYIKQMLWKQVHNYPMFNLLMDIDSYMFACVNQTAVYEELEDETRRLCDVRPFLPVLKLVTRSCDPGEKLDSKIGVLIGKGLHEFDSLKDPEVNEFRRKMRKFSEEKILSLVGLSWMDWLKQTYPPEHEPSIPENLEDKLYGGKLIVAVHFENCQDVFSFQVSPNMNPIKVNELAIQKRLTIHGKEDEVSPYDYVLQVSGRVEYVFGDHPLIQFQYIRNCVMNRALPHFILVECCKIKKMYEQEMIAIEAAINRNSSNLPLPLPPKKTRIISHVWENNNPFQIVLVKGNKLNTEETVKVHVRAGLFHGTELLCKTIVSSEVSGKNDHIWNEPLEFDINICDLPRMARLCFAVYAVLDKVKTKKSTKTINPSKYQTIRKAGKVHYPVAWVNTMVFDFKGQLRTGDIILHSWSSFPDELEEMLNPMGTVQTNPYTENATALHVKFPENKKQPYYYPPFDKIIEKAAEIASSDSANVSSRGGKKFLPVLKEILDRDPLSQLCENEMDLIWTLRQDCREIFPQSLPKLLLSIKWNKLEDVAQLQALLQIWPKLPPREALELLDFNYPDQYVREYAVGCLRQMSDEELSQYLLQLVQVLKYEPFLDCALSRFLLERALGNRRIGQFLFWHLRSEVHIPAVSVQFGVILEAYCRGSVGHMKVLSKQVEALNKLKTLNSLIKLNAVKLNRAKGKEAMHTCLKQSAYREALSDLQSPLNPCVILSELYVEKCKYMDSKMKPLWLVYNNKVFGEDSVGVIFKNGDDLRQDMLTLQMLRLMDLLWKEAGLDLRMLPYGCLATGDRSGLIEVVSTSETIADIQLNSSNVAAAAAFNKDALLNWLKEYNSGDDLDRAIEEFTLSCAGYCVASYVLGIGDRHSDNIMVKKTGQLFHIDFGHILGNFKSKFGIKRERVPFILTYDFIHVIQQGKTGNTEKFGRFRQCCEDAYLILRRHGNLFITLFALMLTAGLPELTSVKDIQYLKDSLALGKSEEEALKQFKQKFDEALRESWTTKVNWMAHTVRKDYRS
Sequence of PI3K β (p110β/p85α)(h) (P27986 whole entry partner): as the sequence (P27986 whole entry partner) above
Sequence of PI3Kα (p110α/p85α)(h) (P42336 whole entry): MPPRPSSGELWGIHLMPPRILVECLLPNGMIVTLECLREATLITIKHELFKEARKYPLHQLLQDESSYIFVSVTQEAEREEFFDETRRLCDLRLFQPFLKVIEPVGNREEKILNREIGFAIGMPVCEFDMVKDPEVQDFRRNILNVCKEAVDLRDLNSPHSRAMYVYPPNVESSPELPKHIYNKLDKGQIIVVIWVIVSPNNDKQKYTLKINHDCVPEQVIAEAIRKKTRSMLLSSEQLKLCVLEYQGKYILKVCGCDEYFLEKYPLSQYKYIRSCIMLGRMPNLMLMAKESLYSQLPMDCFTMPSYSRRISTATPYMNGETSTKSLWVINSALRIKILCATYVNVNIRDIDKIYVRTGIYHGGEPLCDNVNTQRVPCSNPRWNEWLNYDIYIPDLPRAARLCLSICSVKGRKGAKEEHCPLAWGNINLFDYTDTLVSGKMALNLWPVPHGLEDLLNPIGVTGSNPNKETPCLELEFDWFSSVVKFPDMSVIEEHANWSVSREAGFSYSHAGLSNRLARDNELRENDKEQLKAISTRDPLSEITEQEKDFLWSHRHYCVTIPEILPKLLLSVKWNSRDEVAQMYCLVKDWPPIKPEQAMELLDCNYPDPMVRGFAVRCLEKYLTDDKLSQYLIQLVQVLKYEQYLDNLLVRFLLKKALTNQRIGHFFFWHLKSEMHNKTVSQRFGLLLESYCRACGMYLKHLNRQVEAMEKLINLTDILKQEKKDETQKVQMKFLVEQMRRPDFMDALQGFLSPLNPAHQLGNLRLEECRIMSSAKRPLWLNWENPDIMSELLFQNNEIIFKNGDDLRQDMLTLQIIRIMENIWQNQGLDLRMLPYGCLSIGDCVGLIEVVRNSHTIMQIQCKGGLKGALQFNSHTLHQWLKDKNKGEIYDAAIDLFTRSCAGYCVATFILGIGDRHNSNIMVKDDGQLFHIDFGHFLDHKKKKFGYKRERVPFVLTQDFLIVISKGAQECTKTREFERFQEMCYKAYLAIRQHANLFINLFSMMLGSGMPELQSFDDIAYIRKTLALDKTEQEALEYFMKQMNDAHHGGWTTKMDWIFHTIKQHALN
Sequence of PI3Kα (p110α/p85α)(h) (P27986 whole entry partner): as the sequence (P27986 whole entry partner) above
Sequence of PI3Kγ (p120γ)(h) (P48736 whole entry, the tested form may be a part): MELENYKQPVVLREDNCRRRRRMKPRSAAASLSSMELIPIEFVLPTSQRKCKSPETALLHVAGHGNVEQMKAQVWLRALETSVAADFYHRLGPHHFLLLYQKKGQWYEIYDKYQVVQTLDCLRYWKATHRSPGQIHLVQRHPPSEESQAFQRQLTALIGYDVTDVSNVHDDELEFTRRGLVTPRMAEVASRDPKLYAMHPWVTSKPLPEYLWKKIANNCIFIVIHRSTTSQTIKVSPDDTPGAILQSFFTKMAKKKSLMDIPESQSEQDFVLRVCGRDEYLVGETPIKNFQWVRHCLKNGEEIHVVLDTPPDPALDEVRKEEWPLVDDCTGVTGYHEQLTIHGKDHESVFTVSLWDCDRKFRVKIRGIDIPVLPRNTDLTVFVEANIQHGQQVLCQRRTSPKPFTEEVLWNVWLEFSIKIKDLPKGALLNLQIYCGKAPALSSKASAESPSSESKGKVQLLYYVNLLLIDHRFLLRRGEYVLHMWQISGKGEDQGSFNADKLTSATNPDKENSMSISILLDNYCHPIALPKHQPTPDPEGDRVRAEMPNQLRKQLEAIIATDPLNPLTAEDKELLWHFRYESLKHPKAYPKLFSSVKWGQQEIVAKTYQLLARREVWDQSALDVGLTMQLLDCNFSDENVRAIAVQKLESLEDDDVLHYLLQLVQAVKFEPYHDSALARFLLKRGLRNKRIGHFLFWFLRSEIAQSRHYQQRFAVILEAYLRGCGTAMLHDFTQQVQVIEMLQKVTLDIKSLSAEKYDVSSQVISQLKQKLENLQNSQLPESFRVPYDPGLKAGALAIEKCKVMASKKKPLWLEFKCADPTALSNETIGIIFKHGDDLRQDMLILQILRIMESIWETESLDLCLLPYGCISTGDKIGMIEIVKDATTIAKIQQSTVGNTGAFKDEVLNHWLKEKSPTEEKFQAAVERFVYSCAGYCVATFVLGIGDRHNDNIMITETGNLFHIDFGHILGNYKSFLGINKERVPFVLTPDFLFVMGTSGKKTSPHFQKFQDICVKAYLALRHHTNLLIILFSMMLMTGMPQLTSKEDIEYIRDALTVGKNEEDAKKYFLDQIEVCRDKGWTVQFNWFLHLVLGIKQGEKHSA

Structure (SMILES) | IC50 (PI3Kα (p110α/p85α)(h)) | IC50 (PI3Kγ (p120γ)(h)) | IC50 (PI3K β (p110β/p85α)(h)) | IC50 (PI3Kδ (p110δ/p85α)(h))
O=C1NC(=O)/C(=C/c2cc3cncc(C(=O)NC4CCCCC4)c3o2)S1 [Example 422, (Z)—N-Cyclohexyl-2-{(2,4-dioxothiazolidin-5-ylidene)methyl}furo[3,2-c]pyridine-7-carboxamide] | 31 nM | 204 nM | 1230 nM | 1140 nM
COc1ccc(NC(=O)c2cncc3cc(/C=C4\SC(=S)NC4=O)oc23)cc1 [Example 425, (Z)—N-(4-Methoxyphenyl)-2-{(4-oxo-2-thioxothiazolidin-5-ylidene)methyl}furo[3,2-c]pyridine-7-carboxamide] | 11 nM | 51 nM | 1140 nM | 8330 nM
O=C1NC(=S)S/C1=C\c1cc2cncc(C(=O)NCc3ccc(Cl)cc3)c2o1 [Example 427, (Z)—N-(4-Chlorobenzyl)-2-{(4-oxo-2-thioxothiazolidin-5-ylidene)methyl}furo[3,2-c]pyridine-7-carboxamide] | 62 nM | 134 nM | 250 nM | 1170 nM
O=C1NC(=O)/C(=C/c2cc3cncc(C#CC4CCCC4)c3o2)S1 [Example 435, (Z)-5-[{7-(Cyclopentylethynyl)furo[3,2-c]pyridin-2-yl}methylene]thiazolidine-2,4-dione] | 58 nM | 48 nM | 4340 nM | 4280 nM
COc1ccc(C#Cc2cncc3cc(/C=C4\SC(=O)NC4=O)oc23)cc1 [Example 437, (Z)-5-([7-{(4-Methoxyphenyl)ethynyl}furo[3,2-c]pyridin-2-yl]methylene)thiazolidine-2,4-dione] | 8 nM | 9 nM | > 10000 nM | > 10000 nM
O=C1NC(=O)/C(=C/c2cc3cncc(C#Cc4cccc(C(F)(F)F)c4)c3o2)S1 [Example 441, (Z)-5-{(7-[{3-(Trifluoromethyl)phenyl}ethynyl]furo[3,2-c]pyridin-2-yl)methylene}thiazolidine-2,4-dione] | 2 nM | 10 nM | > 10000 nM | > 10000 nM
COc1cc(C#Cc2cncc3cc(/C=C4\SC(=O)NC4=O)oc23)cc(OC)c1 [Example 450, (Z)-5-([7-{(3,5-Dimethoxyphenyl)ethynyl}furo[3,2-c]pyridin-2-yl]methylene)thiazolidine-2,4-dione] | 8 nM | 13 nM | 4650 nM | > 10000 nM
Cc1cc(C#Cc2cncc3cc(/C=C4\SC(=O)NC4=O)oc23)ccc1F [Example 453, (Z)-5-([7-{(4-Fluoro-3-methylphenyl)ethynyl}furo[3,2-c]pyridin-2-yl]methylene)thiazolidine-2,4-dione] | 25 nM | 12 nM | 5070 nM | 801 nM
Cc1ccccc1C#Cc1cncc2cc(/C=C3\SC(=O)NC3=O)oc12 [Example 454, (Z)-5-[{7-(o-Tolylethynyl)furo[3,2-c]pyridin-2-yl}methylene]thiazolidine-2,4-dione] | 1 nM | 7 nM | 466 nM | 143 nM
COc1ccc(C#Cc2cncc3cc(/C=C4\SC(=O)NC4=O)oc23)cc1OC [Example 469, (Z)-5-([7-{(3,4-Dimethoxyphenyl)ethynyl}furo[3,2-c]pyridin-2-yl]methylene)thiazolidine-2,4-dione] | 2 nM | 17 nM | 5090 nM | 37 nM
O=C1NC(=S)S/C1=C\c1cc2cncc(C#CC3CC3)c2o1 [Example 475, (Z)-5-[{7-(Cyclopropylethynyl)furo[3,2-c]pyridin-2-yl}methylene]-2-thioxothiazolidin-4-one] | 68 nM | 10 nM | > 10000 nM | > 10000 nM
CCOC(C#Cc1cncc2cc(/C=C3\SC(=S)NC3=O)oc12)OCC [Example 483, (Z)-5-[{7-(3,3-Diethoxypropyn-1-yl)furo[3,2-c]pyridin-2-yl}methylene]-2-thioxothiazolidin-4-one] | 23 nM | 33 nM | 184 nM | 113 nM
COc1ccccc1C#Cc1cncc2cc(/C=C3\SC(=S)NC3=O)oc12 [Example 486, (Z)-5-([7-{(2-Methoxyphenyl)ethynyl}furo[3,2-c]pyridin-2-yl]methylene)-2-thioxothiazolidin-4-one] | 4 nM | 14 nM | > 10000 nM | > 10000 nM
Cc1ccccc1C#Cc1cncc2cc(/C=C3\SC(=S)NC3=O)oc12 [Example 498, (Z)-2-Thioxo-5-[{7-(o-tolylethynyl)furo[3,2-c]pyridin-2-yl}methylene]thiazolidin-4-one] | 2 nM | 7 nM | 2270 nM | 618 nM
COc1ccc(C#Cc2cncc3cc(/C=C4\SC(=S)NC4=O)oc23)cc1OC [Example 512, (Z)-5-([7-{(3,4-Dimethoxyphenyl)ethynyl}furo[3,2-c]pyridin-2-yl]methylene)-2-thioxothiazolidin-4-one] | 2 nM | 17 nM | 82 nM | 73 nM

Continued, values first:

IC50 (PI3Kα (p110α/p85α)(h)) | IC50 (PI3Kγ (p120γ)(h)) | IC50 (PI3K β (p110β/p85α)(h)) | IC50 (PI3Kδ (p110δ/p85α)(h)) | Structure (SMILES)
4 nM | 11 nM | 715 nM | 74 nM | N#Cc1ccccc1C#Cc1cncc2cc(/C=C3\SC(=S)NC3=O)oc12 [Example 513, (Z)-2-([2-{(4-Oxo-2-thioxothiazolidin-5-ylidene)methyl}furo[3,2-c]pyridin-7-yl]ethynyl)benzonitrile]
6 nM | 23 nM | 1210 nM | 33 nM | O=C1NC(=O)/C(=C/c2cc3cncc(C#Cc4ccccc4C(F)(F)F)c3o2)S1 [Example 526]
8 nM | 24 nM | 638 nM | 92 nM | O=C1NC(=O)/C(=C/c2cc3cncc(C#Cc4ccsc4)c3o2)S1 [Example 528, (Z)-5-[{7-(Thiophen-3-ylethynyl)furo[3,2-c]pyridin-2-yl}methylene]thiazolidine-2,4-dione]
5 nM | 33 nM | 1390 nM | 137 nM | COC(=O)c1ccc(C#Cc2cncc3cc(/C=C4\SC(=O)NC4=O)oc23)cc1 [Example 532, (Z)-Methyl 4-([2-{(2,4-dioxothiazolidin-5-ylidene)methyl}furo[3,2-c]pyridin-7-yl]ethynyl)benzoate]
14 nM | 37 nM | 3720 nM | 2230 nM | O=C1NC(=O)/C(=C/c2cc3cncc(C#Cc4ccc(OC(F)(F)F)cc4)c3o2)S1 [Example 533]
5 nM | 27 nM | 104 nM | 136 nM | O=C1NC(=O)/C(=C/c2cc3cncc(C#Cc4ccc(Cl)cc4)c3o2)S1 [Example 541, (Z)-5-([7-{(4-Chlorophenyl)ethynyl}furo[3,2-c]pyridin-2-yl]methylene)thiazolidine-2,4-dione]
3 nM | 24 nM | > 10000 nM | 1270 nM | COC(=O)c1cccc(C#Cc2cncc3cc(/C=C4\SC(=O)NC4=O)oc23)c1 [Example 542, (Z)-Methyl 3-([2-{(2,4-dioxothiazolidin-5-ylidene)methyl}furo[3,2-c]pyridin-7-yl]ethynyl)benzoate]
